For orientation: IC50 means the concentration needed to halve the response being measured.

Where a name gives a salt, the structure may show the parent alone.

Data on 19 molecules can be found in patent US20240409553A1, “HETEROCYCLIC NLRP3 INHIBITORS” (Hoffmann-La Roche Inc., priority 2021, published 2024).

The target of assay [1] is T1, NLRP3 (Homo sapiens, UniProt Q96P20). In words: THP-1 cells pyroptosis assay (LPS priming, nigericin, resazurin readout). Format: cell-based. Also noted: Seed THP-1 cells (25,000 cells/well) containing 1.0 μg/ml LPS; host or cells: THP-1 cells, LPS-primed, nigericin-stimulated. To be noted: 1 μg/ml LPS, 3 h compound, 5 μM nigericin 1 hr. How it is done: THP-1 cells (ATCC #TIB-202) were grown in RPMI containing L-glutamine (Gibco #11835) supplemented with 1 mM sodium pyruvate (Sigma #S8636) and penicillin (100 units/ml)/streptomycin (0.1 mg/ml) (Sigma #P4333) in 10% Fetal Bovine Serum (FBS) (Sigma #F0804). The cells were routinely passaged and grown to confluency (˜10^6 cells/ml). On the day of the experiment, THP-1 cells were harvested and resuspended into RPMI medium (without FBS). The cells were then counted and viability (>90%) checked by Trypan blue (Sigma #T8154). Appropriate dilutions were made to give a concentration of 625,000 cells/ml. To this diluted cell solution was added LPS (Sigma #L4524) to give a 1 μg/ml Final Assay Concentration (FAC). 40 μl of the final preparation was aliquoted into each well of a 96-well plate. The plate thus prepared was used for compound screening.
The following method step-by-step assay was followed for compound screening. • 1. Seed THP-1 cells (25,000 cells/well) containing 1.0 μg/ml LPS in 40 μl of RPMI medium (without FBS) in 96-well, black walled, clear bottom cell culture plates coated with poly-D-lysine (VWR #734-0317) • 2. Add 5 μl compound (8 points half-log dilution, with 10 μM top dose) or vehicle (DMSO 0.1% FAC) to the appropriate wells • 3. Incubate for 3 hours at 37° C., 5% CO2 • 4. Add 5 μl nigericin (Sigma #N7143) (FAC 5 μM) to all wells • 5. Incubate for 1 hr at 37° C., 5% CO2 • 6. At the end of the incubation period, spin plates at 300×g for 3 mins and remove supernatant • 7. Then add 50 μl of resazurin (Sigma #R7017) (FAC 100 μM resazurin in RPMI medium without FBS) and incubate plates for a further 1-2 hours at 37° C. and 5% CO2 • 8. Plates were read in an Envision reader at Ex 560 nm and Em 590 nm • 9. IC50 data is fitted to a non-linear regression equation (log inhibitor vs response-variable slope 4-parameters)

Assay [2] concerns the target T1, NLRP3. Description: Human whole blood IL-1β release assay (LPS, nigericin, AlphaLisa). To be noted: 1 μg/ml LPS, 3 h compound, 10 μM nigericin 1 hr, IL-1β in supernatant, read-out: Human whole blood IB-1β Assay IC50. Also noted: Plate out 80 μl of whole blood containing 1 μg/ml of LPS; from tissue; host or cells: human whole blood from healthy donors, LPS-primed, nigericin-stimulated. Format: cell-based. As for the experimental part:
For systemic delivery, the ability to inhibit NLRP3 when the compounds are present within the bloodstream is of great importance. For this reason, the NLRP3 inhibitory activity of a number of compounds in human whole blood was investigated in accordance with the following protocol.
Human whole blood in Li-heparin tubes was obtained from healthy donors from a volunteer donor panel. • 1. Plate out 80 μl of whole blood containing 1 μg/ml of LPS in 96-well, clear bottom cell culture plate (Corning #3585) • 2. Add 10 μl compound (8 points half-log dilution with 10 μM top dose) or vehicle (DMSO 0.10% FAC) to the appropriate wells • 3. Incubate for 3 hours at 37° C., 5% CO2 • 4. Add 10 μl nigericin (Sigma #N7143) (10 μM FAC) to all wells • 5. Incubate for 1 hr at 37° C., 5% CO2 • 6. At the end of the incubation period, spin plates at 300×g for 5 mins to pellet cells and remove 20 μl of supernatant and add to 96-well v-bottom plates for IL-1β analysis (note: these plates containing the supernatants can be stored at −80° C. to be analysed at a later date) • 7. IL-1β was measured according to the manufacturer protocol (Perkin Elmer-AlphaLisa IL-1 Kit AL220F-5000) • 8. IC50 data is fitted to a non-linear regression equation (log inhibitor vs response-variable slope 4-parameters)
(In general: In Alpha technology, singlet oxygen from a donor bead excites a nearby acceptor bead.)

T1 sequence (Q96P20 whole entry): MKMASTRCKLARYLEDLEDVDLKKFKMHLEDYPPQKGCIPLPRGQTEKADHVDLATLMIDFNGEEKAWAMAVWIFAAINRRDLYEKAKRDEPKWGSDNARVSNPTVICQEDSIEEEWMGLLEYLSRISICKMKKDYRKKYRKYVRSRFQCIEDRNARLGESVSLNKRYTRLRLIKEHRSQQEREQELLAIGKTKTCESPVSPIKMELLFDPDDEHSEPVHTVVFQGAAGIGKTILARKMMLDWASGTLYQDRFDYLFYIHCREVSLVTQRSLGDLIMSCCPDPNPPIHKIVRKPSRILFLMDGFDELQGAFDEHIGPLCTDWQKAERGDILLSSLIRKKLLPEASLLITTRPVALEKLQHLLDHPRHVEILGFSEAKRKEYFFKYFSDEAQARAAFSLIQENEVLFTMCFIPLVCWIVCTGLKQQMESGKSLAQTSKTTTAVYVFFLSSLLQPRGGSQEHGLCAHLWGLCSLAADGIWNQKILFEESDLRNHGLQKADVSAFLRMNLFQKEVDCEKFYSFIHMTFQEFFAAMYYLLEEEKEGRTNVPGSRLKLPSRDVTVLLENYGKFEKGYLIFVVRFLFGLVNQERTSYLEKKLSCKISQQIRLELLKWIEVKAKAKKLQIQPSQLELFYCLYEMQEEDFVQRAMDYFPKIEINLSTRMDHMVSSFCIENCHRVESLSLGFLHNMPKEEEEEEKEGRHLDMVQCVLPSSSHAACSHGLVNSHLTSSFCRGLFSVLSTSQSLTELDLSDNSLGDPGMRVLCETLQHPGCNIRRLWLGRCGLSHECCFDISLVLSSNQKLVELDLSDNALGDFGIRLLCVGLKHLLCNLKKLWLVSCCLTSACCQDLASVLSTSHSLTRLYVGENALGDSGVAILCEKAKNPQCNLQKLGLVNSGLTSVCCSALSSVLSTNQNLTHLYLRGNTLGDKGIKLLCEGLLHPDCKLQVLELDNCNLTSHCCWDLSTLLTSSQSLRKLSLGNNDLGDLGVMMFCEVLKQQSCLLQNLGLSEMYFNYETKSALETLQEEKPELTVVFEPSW

With `CCN1CCC[C@@H](Nc2nnc(-c3ccc4c(c3O)CCO4)c3c2cnn3C)C1` [Example 17, 5-[4-[[(3R)-1-Ethyl-3-piperidyl]amino]-1-methyl-pyrazolo[3,4-d]pyridazin-7-yl]-2,3-dihydrobenzofuran-4-ol], the IC50 against NLRP3 [1] came out at 3.6 nM; at NLRP3 [2], 0.015 nM. Taken in the same sequence, the figures for `CCN1CCC[C@@H](Nc2nnc(-c3ccc(Cl)cc3O)c3c2cnn3C)C1` [Example 12, 5-Chloro-2-[1-methyl-4-[[(3R)-1-ethyl-3-piperidyl]amino]pyrazolo[3,4-d]pyridazin-7-yl]phenol; 2,2,2-trifluoroacetic acid] were 2.2 nM and 0.014 nM. Take `CCN1CCCC(Nc2nnc(-c3ccc(C(F)(F)F)cc3O)c3sccc23)C1` (racemic) [Example 2, (rac)-2-[4-[(1-Ethyl-3-piperidyl)amino]thieno[2,3-d]pyridazin-7-yl]-5 (trifluoromethyl)phenol; formic acid]: the results for the IC50 against NLRP3 [1] and on NLRP3 [2] were 3.5 nM and 0.349 nM, respectively.

In the case of `CCN1CCC[C@@H](Nc2nnc(-c3ccc(C(F)(F)F)cc3O)c3c2ccn3C)C1` [Example 5-TFA, 2-[4-[[(3R)-1-ethyl-3-piperidyl]amino]-1-methyl-pyrrolo[2,3-d]pyridazin-7-yl]-5-(trifluoromethyl)phenol; 2,2,2-trifluoroacetic acid], the IC50 was 12.4 nM against NLRP3 [1] and 0.028 nM at NLRP3 [2].

Turning to `CCN1CCC[C@@H](Nc2nnc(-c3ccc4c(c3O)CC4)c3c2cnn3C)C1` [Example 18, 3-[4-[[(3R)-1-Ethyl-3-piperidyl]amino]-1-methyl-pyrazolo[3,4-d]pyridazin-7-yl]bicyclo[4.2.0]octa-1(6),2,4-trien-2-ol], the figures for the IC50 against NLRP3 [1] and on NLRP3 [2] were 2.2 nM and 0.033 nM, respectively.

In the case of `CCN1C[C@@H](O)C[C@@H](Nc2nnc(-c3ccc4c(c3O)CCO4)c3c2cnn3C)C1` [Example 19, (3S,5R)-1-Ethyl-5-[[7-(4-hydroxy-2,3-dihydrobenzofuran-5-yl)-1-methyl-pyrazolo[3,4-d]pyridazin-4-yl]amino]piperidin-3-ol], the figures for the IC50 against NLRP3 [1] and on NLRP3 [2] were 46.6 nM and 0.3 nM, respectively.

Consider `Cn1ncc2c(N[C@H]3C[C@@](C)(O)C3)nnc(-c3ccc(C(F)(F)F)cc3O)c21` [Example 16, 2-[4-[(3-Hydroxy-3-methyl-cyclobutyl)amino]-1-methyl-pyrazolo[3,4-d]pyridazin-7-yl]-5-(trifluoromethyl)phenol], for which, at NLRP3 [1], the IC50 came to 362 nM. On to `CCN1CCC[C@@H](Nc2nnc(-c3ccc(OC(F)(F)F)cc3O)c3c2cnn3C)C1` [Example 10, 2-[4-[[(3R)-1-Ethyl-3-piperidyl]amino]-1-methyl-pyrazolo[3,4-d]pyridazin-7-yl]-5-(trifluoromethoxy)phenol; 2,2,2-trifluoroacetic acid], for which the IC50 is 2.3 nM at NLRP3 [1] and 0.024 nM at NLRP3 [2]. Consider `CCN1CCC[C@@H](Nc2nnc(-c3c(C)cc(C(F)(F)F)cc3O)c3[nH]ncc23)C1` [Example 14, 2-[4-[[(3R)-1-ethyl-3-piperidyl]amino]-1H-pyrazolo[3,4-d]pyridazin-7-yl]-3-methyl-5-(trifluoromethyl)phenol; 2,2,2-trifluoroacetic acid], for which the IC50 at NLRP3 [1] is 7.8 nM; at NLRP3 [2], 0.111 nM.

In the case of `CCN1CCC[C@@H](Nc2nnc(-c3ccc(C(F)(F)F)cc3O)c3c2cnn3C)C1` [Example 6, 2-[4-[[(3R)-1-Ethyl-3-piperidyl]amino]-1-methyl-pyrazolo[3,4-d]pyridazin-7-yl]-5-(trifluoromethyl)phenol; 2,2,2-trifluoroacetic acid], the values for the IC50 against NLRP3 [1] and on NLRP3 [2] were 3.5 nM and 0.028 nM, respectively. In the case of `CCN1CCC[C@@H](Nc2nnc(-c3c(O)cc(C(F)(F)F)cc3F)c3c2cnn3C)C1` [Example 15, 2-[4-[[(3R)-1-Ethyl-3-piperidyl]amino]-1-methyl-pyrazolo[3,4-d]pyridazin-7-yl]-3-fluoro-5-(trifluoromethyl)phenol], the IC50 at NLRP3 [1] turned out to be 8.6 nM; at NLRP3 [2] it was 0.232 nM.

For `CCN1CCC[C@@H](Nc2nnc(-c3ccc(C(F)(F)F)cc3O)c3occc23)C1` [Example 7, 2-[4-[[(3R)-1-ethyl-3-piperidyl]amino]furo[2,3-d]pyridazin-7-yl]-5-(trifluoromethyl)phenol], the values for the IC50 against NLRP3 [1] and at NLRP3 [2] were 9.1 nM and 0.592 nM, respectively. Turning to `Cn1ncc2c(N[C@@H]3CCCC[C@H]3O)nnc(-c3ccc(C(F)(F)F)cc3O)c21` [Example 11, 2-[4-[[(1R,2R)-2-Hydroxycyclohexyl]amino]-1-methyl-pyrazolo[3,4-d]pyridazin-7-yl]-5-(trifluoromethyl)phenol; 2,2,2-trifluoroacetic acid], the IC50 against NLRP3 [1] was 76 nM. As to `CCN1CCCC(Nc2nnc(-c3ccc(C(F)(F)F)cc3)c3sccc23)C1` (racemic) [Example 4, (rac)-N-(1-ethyl-3-piperidyl)-7-[4-(trifluoromethyl)phenyl]thieno[2,3-d]pyridazin-4-amine], the IC50 stood at 52.4 nM against NLRP3 [1] and 0.328 nM on NLRP3 [2]. In the case of `CCN1CCC[C@@H](Nc2nnc(-c3ccc(C(F)(F)F)cc3O)c3cnn(C)c23)C1` [Example 9, 2-[7-[[(3R)-1-Ethyl-3-piperidyl]amino]-1-methyl-pyrazolo[3,4-d]pyridazin-4-yl]-5-(trifluoromethyl)phenol], the IC50 worked out at 2.7 nM against NLRP3 [1] and 0.217 nM on NLRP3 [2]. Molecule `CCN1CCC[C@@H](Nc2nnc(-c3ccc(C(F)(F)F)cc3O)c3c2ccn3C)C1` [Example 5-HCl, 2-[4-[[(3R)-1-Ethyl-3-piperidyl]amino]-1-methyl-pyrrolo[2,3-d]pyridazin-7-yl]-5-(trifluoromethyl)phenol; hydrochloride] came in with an IC50 against NLRP3 [1] of 11.6 nM.

`CCN1CCCC(Nc2nnc(-c3ccc(C(F)(F)F)cc3)c3ccsc23)C1` (racemic) [Example 3, (rac)-N-(1-ethyl-3-piperidyl)-4-[4-(trifluoromethyl)phenyl]thieno[2,3-d]pyridazin-7-amine]: the values for the IC50 against NLRP3 [1] and on NLRP3 [2] were 57.2 nM and 0.091 nM, respectively. On to `CCN1CCC[C@@H](Nc2nnc(-c3ccc(C(F)(F)F)cc3O)c3onc(C)c23)C1` [Example 13, 2-[4-[[(3R)-1-Ethyl-3-piperidyl]amino]-3-methyl-isoxazolo[4,5-d]pyridazin-7-yl]-5-(trifluoromethyl)phenol], for which the IC50 against NLRP3 [1] is 18 nM; on NLRP3 [2] it was 2.6 nM. Taken in the same sequence, the figures for `CCN1CCCC(Nc2nnc(-c3ccc(C(F)(F)F)cc3O)c3ccsc23)C1` (racemic) [Example 1, (rac)-2-[7-[(1-Ethyl-3-piperidyl)amino]thieno[2,3-d]pyridazin-4-yl]-5(trifluoromethyl)phenol; formic acid] were 1.6 nM and 0.088 nM.
